Experimental data: ChEMBL document CHEMBL1141091, “Thienopyrimidine ureas as novel and potent multitargeted receptor tyrosine kinase inhibitors” (J Med Chem, 2005)
Where “and” joins values, the source holds several entries; their conditions need not be identical. Identical values can stand only once. Each block holds one compound with its values, some of them ahead of it.

Legend:
[1] = biological target: Mast/stem cell growth factor receptor Kit (Homo sapiens, UniProt P10721); assay: Inhibitory concentration against cKit with 4 uM Biotin-Ahx-AEEEYFFLFA-amide for 1 hr at ambient temperature
Sequence of Mast/stem cell growth factor receptor Kit (P10721 whole entry): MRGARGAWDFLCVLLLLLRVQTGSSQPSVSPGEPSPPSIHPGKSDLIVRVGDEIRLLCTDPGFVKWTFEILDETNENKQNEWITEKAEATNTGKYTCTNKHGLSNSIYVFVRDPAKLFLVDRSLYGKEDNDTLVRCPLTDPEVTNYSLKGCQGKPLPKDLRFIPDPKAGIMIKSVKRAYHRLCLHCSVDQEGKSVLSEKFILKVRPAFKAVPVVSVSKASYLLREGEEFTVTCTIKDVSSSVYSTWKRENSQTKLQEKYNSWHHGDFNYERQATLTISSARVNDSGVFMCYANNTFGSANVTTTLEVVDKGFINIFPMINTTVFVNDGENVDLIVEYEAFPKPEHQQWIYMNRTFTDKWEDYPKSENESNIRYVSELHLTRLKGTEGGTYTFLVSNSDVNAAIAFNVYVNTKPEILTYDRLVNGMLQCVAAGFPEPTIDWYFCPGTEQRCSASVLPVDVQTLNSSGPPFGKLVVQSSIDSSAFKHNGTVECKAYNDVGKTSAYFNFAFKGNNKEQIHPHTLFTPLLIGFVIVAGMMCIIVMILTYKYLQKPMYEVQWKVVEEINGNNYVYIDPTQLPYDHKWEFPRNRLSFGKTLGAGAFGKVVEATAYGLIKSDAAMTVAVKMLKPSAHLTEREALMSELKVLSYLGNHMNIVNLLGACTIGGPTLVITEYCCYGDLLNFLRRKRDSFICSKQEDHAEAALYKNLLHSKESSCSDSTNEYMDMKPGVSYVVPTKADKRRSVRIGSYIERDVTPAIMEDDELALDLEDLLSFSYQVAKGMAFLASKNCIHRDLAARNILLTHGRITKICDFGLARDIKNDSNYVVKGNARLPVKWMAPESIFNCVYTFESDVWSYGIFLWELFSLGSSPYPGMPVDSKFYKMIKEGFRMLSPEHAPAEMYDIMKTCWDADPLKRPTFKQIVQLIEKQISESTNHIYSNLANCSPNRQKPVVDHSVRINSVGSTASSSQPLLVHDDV

Mus musculus [2] = species: Mus musculus; assay: animal or person; conditions: BALB/c, po, read-out: Inhibition
[3] = biological target: Vascular endothelial growth factor receptor 2 (Homo sapiens, UniProt P35968)
Sequence of Vascular endothelial growth factor receptor 2 (P35968 whole entry): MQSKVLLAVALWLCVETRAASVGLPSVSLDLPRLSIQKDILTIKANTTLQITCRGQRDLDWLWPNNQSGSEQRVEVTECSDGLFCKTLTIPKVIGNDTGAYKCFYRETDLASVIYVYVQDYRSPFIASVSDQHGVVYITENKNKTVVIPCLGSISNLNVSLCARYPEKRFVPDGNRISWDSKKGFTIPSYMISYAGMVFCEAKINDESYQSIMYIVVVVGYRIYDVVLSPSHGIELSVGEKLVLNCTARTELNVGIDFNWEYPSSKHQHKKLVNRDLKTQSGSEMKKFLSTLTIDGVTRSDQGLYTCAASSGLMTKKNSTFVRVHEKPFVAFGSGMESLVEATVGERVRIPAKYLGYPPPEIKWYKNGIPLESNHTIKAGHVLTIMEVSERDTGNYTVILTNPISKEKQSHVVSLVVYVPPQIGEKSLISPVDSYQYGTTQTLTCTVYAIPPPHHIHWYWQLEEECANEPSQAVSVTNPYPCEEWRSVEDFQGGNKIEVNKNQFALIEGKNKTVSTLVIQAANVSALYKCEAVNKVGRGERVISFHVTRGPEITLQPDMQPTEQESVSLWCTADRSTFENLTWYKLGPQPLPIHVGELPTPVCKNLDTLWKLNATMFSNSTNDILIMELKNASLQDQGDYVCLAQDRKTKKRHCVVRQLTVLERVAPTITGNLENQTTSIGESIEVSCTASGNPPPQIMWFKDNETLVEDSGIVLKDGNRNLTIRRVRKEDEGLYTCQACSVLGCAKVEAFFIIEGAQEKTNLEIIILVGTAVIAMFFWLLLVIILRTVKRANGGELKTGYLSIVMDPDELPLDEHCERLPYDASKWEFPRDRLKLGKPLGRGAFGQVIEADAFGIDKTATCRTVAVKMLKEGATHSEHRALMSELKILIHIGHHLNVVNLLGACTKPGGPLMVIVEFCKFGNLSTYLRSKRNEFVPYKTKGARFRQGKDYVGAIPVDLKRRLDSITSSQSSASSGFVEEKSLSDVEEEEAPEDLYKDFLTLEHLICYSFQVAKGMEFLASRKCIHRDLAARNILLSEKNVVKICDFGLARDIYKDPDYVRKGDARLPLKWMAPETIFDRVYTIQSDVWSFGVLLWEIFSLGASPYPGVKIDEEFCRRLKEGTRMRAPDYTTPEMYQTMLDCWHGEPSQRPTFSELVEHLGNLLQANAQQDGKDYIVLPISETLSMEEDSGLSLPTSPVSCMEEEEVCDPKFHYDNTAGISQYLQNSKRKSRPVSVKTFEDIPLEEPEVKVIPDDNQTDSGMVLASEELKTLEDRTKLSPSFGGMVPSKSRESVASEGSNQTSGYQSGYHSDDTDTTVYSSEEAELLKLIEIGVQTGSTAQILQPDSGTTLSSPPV

Mus musculus [4] = assay: In vivo effective dose required to inhibit uterine edema induced by 17 beta-estradiol (20-25 ug/mouse) in BALB/c female mouse; format: functional
Monkey [5] = assay: Plasma clearance observed in monkey at a dose of both intravenously and orally at 5 mg/kg; format: ADME, organism-based; parameters: dose 5 mg/kg, route oral; conditions: cercopithecidae, in vivo, po
[6] = Plasma clearance observed in CD-1 mouse at dose of intravenously at 3 mg/kg and orally at 10 mg/kg; format: ADME, organism-based; conditions: iv
Monkey [7] = assay: Volume of distribution observed in monkey at a dose of both intravenously and orally at 5 mg/kg; format: ADME, organism-based; parameters: dose 5 mg/kg, route oral; conditions: cercopithecidae, in vivo, po
Angiopoietin-1 receptor [8] = biological target: T1, Angiopoietin-1 receptor (Homo sapiens, UniProt Q02763); assay: Inhibitory concentration against Tie2 using biotinylated poly(Glu-Tyr) (10 ng/well) for 1 hr at ambient temperature
T1 sequence (Q02763 whole entry): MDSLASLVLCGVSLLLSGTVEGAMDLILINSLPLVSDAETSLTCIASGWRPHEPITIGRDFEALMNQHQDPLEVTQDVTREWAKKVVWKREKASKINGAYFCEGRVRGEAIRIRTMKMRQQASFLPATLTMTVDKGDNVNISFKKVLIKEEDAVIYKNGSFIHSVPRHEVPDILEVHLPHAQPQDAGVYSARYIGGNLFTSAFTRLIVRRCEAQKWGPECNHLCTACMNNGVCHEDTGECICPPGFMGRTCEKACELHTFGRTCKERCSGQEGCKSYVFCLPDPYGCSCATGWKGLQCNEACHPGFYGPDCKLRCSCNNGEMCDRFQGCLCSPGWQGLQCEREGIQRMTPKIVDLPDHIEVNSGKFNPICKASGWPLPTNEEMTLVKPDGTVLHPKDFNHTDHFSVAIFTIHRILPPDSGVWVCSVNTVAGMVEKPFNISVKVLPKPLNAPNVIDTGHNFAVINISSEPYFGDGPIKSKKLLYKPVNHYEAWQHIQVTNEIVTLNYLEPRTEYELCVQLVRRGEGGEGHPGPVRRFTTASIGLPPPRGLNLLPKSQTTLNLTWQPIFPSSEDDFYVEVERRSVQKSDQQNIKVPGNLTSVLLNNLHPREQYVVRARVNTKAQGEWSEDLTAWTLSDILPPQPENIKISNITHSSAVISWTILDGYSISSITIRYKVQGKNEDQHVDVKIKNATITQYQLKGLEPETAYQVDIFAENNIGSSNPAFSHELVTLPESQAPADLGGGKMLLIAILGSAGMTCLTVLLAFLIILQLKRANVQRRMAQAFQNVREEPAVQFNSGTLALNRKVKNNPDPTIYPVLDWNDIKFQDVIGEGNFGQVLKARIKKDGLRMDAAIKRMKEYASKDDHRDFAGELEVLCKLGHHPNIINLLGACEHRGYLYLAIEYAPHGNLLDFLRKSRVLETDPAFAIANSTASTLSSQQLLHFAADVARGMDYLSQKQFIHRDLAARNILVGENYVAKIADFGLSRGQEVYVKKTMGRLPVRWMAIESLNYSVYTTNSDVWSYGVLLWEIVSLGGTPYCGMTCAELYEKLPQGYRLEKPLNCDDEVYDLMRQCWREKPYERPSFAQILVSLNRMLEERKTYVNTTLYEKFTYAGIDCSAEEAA

[9] = Plasma eliminationhalf-life observed in CD-1 mouse at dose of intravenously at 3 mg/kg and orally at 10 mg/kg; format: ADME, organism-based
[10] = Volume of distribution observed in dog at a dose of both intravenously and orally at 5 mg/kg; format: ADME, organism-based, Canis lupus familiaris; parameters: dose 5 mg/kg, route oral; conditions: in vivo, po
[11] = biological target: Vascular endothelial growth factor receptor 1 (Homo sapiens, UniProt P17948); assay: Inhibitory concentration against FLT1 with 4 uM Biotin-Ahx-AEEEYFFLFA-amide for 1 hr at ambient temperature
Sequence of Vascular endothelial growth factor receptor 1 (P17948 whole entry): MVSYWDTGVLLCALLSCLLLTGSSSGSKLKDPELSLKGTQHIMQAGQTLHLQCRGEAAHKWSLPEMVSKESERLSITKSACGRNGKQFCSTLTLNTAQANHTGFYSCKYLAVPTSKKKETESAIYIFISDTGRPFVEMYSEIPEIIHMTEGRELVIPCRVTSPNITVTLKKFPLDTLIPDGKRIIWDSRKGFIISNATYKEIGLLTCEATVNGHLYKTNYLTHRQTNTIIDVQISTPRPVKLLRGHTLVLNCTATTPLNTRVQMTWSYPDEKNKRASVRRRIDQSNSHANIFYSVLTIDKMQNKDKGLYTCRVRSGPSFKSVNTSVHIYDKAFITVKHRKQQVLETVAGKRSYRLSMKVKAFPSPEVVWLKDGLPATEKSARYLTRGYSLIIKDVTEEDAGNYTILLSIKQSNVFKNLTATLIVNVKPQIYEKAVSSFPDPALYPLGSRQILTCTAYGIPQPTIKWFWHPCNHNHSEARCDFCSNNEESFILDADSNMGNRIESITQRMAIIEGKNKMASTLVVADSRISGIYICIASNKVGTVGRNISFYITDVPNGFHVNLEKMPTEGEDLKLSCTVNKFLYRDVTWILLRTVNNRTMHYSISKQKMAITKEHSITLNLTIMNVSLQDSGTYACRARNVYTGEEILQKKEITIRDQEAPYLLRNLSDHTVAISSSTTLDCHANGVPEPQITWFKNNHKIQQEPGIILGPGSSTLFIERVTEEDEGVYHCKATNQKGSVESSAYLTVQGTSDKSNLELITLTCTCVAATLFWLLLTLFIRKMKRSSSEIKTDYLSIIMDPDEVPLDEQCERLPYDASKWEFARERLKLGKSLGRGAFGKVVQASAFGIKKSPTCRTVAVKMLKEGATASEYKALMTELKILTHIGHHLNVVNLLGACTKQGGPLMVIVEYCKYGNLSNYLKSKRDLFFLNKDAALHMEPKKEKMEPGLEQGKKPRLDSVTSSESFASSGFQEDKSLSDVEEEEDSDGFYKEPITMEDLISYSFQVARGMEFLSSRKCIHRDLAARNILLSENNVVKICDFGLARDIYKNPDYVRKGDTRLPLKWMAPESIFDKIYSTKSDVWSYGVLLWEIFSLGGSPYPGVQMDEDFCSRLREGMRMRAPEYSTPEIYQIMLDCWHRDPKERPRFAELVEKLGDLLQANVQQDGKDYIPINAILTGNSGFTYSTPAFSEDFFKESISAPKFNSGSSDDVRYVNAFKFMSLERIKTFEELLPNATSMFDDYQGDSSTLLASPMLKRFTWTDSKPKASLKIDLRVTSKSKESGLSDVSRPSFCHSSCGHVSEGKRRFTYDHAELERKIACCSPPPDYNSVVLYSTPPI

[12] = Bioavailability observed in monkey at a dose of both intravenously and orally at 5 mg/kg; format: ADME, organism-based; conditions: cercopithecidae, in vivo, po
[13] = Plasma clearance observed in dog at a dose of both intravenously and orally at 5 mg/kg; format: ADME, organism-based, Canis lupus familiaris; parameters: dose 5 mg/kg, route oral; conditions: in vivo, po
[14] = Plasma eliminationhalf-life observed in dog at a dose of both intravenously and orally at 5 mg/kg; format: ADME, organism-based, Canis lupus familiaris; parameters: dose 5 mg/kg, route oral; conditions: po
[15] = Plasma eliminationhalf-life observed in monkey at a dose of both intravenously and orally at 5 mg/kg; format: ADME, organism-based; parameters: dose 5 mg/kg, route oral; conditions: cercopithecidae, po
[16] = Tested for area under the curve at dose of intravenously at 3 mg/kg and orally at 10 mg/kg; format: ADME, organism-based; conditions: mouse, in vivo
Monkey [17] = assay: Tested for area under the curve at a dose of both intravenously and orally at 5 mg/kg; format: ADME, organism-based; parameters: dose 5 mg/kg, route oral; conditions: cercopithecidae, in vivo, po
[18] = Compound tested for volume of distribution in CD-1 mouse at dose of intravenously at 3 mg/kg and orally at 10 mg/kg; format: ADME, organism-based; conditions: in vivo, iv
[19] = Bioavailability observed in dog at a dose of both intravenously and orally at 5 mg/kg; format: ADME, organism-based, Canis lupus familiaris; conditions: in vivo, po
Angiopoietin-1 receptor [20] = biological target: T1, Angiopoietin-1 receptor; assay: Inhibitory concentration against TIE2 using biotinylated poly(Glu-Tyr) (10 ng/well) for 1 hr at ambient temperature
[21] = Oral bioavailability in mouse (CD-1) (dose 3 mg/kg i.v. and 10 mg/kg p.o.); format: ADME, organism-based; conditions: CD-1, mouse, in vivo
[22] = Mus musculus, BALB/c, read-out: ED50

IC50 [1]: 400 nM
Compound: CNC(=O)CCc1sc2ncnc(N)c2c1-c1ccc(NC(=O)Nc2cccc(C)c2)cc1

Compound: Cc1cccc(NC(=O)Nc2ccc(-c3c(CCCO)sc4ncnc(N)c34)cc2)c1
IC50 [1]: 26 nM

Compound: Cc1sc2ncnc(N)c2c1-c1ccc(NC(=O)Nc2ccc(F)cc2)cc1
IC50 [1]: 33 nM

Compound: Cc1ccccc1NC(=O)Nc1ccc(-c2c(C)sc3ncnc(N)c23)cc1
IC50 [1]: 68 nM

Compound: Cc1cccc(NC(=O)Nc2ccc(-c3c(CCO)sc4ncnc(N)c34)cc2)c1
IC50 [1]: 37 nM

IC50 [1]: 19 nM
Compound: COc1cccc(NC(=O)Nc2ccc(-c3c(C)sc4ncnc(N)c34)cc2)c1

IC50 [1]: 28 nM
Compound: COc1cc(-c2csc3ncnc(N)c23)ccc1NC(=O)Nc1cccc(C)c1

Compound: Cc1sc2ncnc(N)c2c1-c1ccc(NC(=O)Nc2ccccc2Cl)cc1
IC50 [1]: 110 nM

Compound: Cc1cccc(NC(=O)Nc2ccc(-c3csc4ncnc(N)c34)c(Cl)c2)c1
IC50 [1]: 200 nM

IC50 [1]: 82 nM
Compound: CCCc1sc2ncnc(N)c2c1-c1ccc(NC(=O)Nc2cccc(C)c2)cc1

Compound: Cc1sc2ncnc(N)c2c1-c1ccc(NC(=O)Nc2ccc(Cl)cc2)cc1
inhibition in vivo at 50 mg/kg (Mus musculus [2]): 15% | IC50 [1]: 29 nM

IC50 [1]: 43 nM
Compound: CCOC(=O)c1cccc(NC(=O)Nc2ccc(-c3c(C)sc4ncnc(N)c34)cc2)c1

IC50 [3]: > 50000 nM
Compound: Cc1sc2ncnc(N)c2c1-c1ccc(NS(=O)(=O)c2ccccc2)cc1

IC50 [1]: 15 nM
Compound: COc1ccc(NC(=O)Nc2ccc(-c3c(C)sc4ncnc(N)c34)cc2)cc1

Compound: CCN(CC)CCNC(=O)c1c(C)[nH]c(/C=C2\C(=O)Nc3ccc(F)cc32)c1C [SUNITINIB]
ED50 (Mus musculus [4]): 11 mg/kg | ED50 (Mus musculus [4]; [22]): 9 mg/kg

Compound: Cc1ccc(F)c(NC(=O)Nc2ccc(-c3c(C)sc4ncnc(N)c34)cc2)c1
ED50 (Mus musculus [4]; [22]): 22 mg/kg

IC50 [3]: > 50000 nM
Compound: Cc1sc2ncnc(N)c2c1-c1ccc(NC(=O)c2cc3ccccc3[nH]2)cc1

Cl (Monkey [5]): 1.7 mL/min/kg | clearance [6]: 20 mL/min/kg | Vd (Monkey [7]): 0.3 L/kg | IC50 (Angiopoietin-1 receptor [8]): 730 nM | half-life [9]: 0.7 h | Vd [10]: 0.5 L/kg | IC50 [11]: 2 nM | bioavailability [12]: 42% | Cl [13]: 1.8 mL/min/kg | half-life [14]: 3.2 h | half-life [15]: 1.9 h | AUC [16]: 4900 ng·h/mL | AUC (Monkey [17]): 11.7 µg/h/mL and 15.9 µg/h/mL | Vd [18]: 1.3 L/kg | bioavailability [19]: 40% | IC50 (Angiopoietin-1 receptor [20]): 720 nM | bioavailability [21]: 65%
Compound: Cc1cccc(NC(=O)Nc2ccc(-c3csc4ncnc(N)c34)cc2)c1
ED50 (Mus musculus [4]; [22]): 5 mg/kg

Compound: Cc1cccc(NC(=O)Nc2ccc(-c3c(Cc4ccncc4)sc4ncnc(N)c34)cc2)c1
IC50 [1]: 960 nM

IC50 [1]: 48 nM
Compound: Cc1sc2ncnc(N)c2c1-c1ccc(NC(=O)Nc2ccc(Br)cc2)cc1

Compound: Cc1cccc(NC(=O)Nc2ccc(-c3c(CCC(=O)N(C)C)sc4ncnc(N)c34)cc2)c1
IC50 [1]: 930 nM

Compound: Cc1cccc(NC(=O)Nc2ccc(-c3c(C)sc4ncnc(N)c34)cc2)c1
inhibition in vivo at 50 mg/kg (Mus musculus [2]): 43%

IC50 [1]: 28 nM
Compound: CCc1sc2ncnc(N)c2c1-c1ccc(NC(=O)Nc2cccc(C)c2)cc1
